Experiment [1] addresses T1, GTPase KRas [1-169,G12C,C118A] (Homo sapiens, UniProt P01116, C118A/G12C).
T1 construct: 1-169
The experiment in a line: Coupled Nucleotide Exchange Assay (20 hours). The method, then: (§1) Purified GDP-bound KRAS protein (aa 1-169), containing either G12C or G12D, as well as C118A amino acid substitutions and an N-terminal His-tag, was pre-incubated in assay buffer (25 mM HEPES pH 7.4, 10 mM MgCl2, and 0.01% Triton X-100) with a compound dose-response titration for 20 hours. Following compound pre-incubation, purified SOS protein (aa 564-1049) and GTP (Roche 10106399001) were added to the assay wells and incubated for an additional 30 min. To determine the extent of inhibition of SOS-mediated nucleotide exchange, purified GST-tagged cRAF (aa 1-149), nickel chelate AlphaLISA acceptor beads (PerkinElmer AL108R), and AlphaScreen glutathione donor beads (PerkinElmer 6765302) were added to the assay wells and incubated for 10 minutes. The assay plates were then read on a PerkinElmer EnVision Multilabel Reader, using AlphaScreen technology, and data were analyzed using a 4-parameter logistic model to calculate IC50 values.

A further experiment deals with GTPase KRas [G12D,C118A] (Homo sapiens, UniProt P01116, C118A/G12D). The experiment in a line: Coupled Nucleotide Exchange Assay (20 hours). The method, then:
as §1

Experiment [2] concerns the target T1, GTPase KRas [1-169,G12C,C118A]. The experiment in a line: Coupled Nucleotide Exchange Assay (5min). The procedure:
as §1, with “either 5 min.” for “20 hours.”

From BindingDB's records for patent US20240190862 (Amgen, 2024) come the findings set out here.

One may read the IC50 as the concentration that gives 50% inhibition. A lower IC50 goes with higher potency.

GTPase KRas [G12D,C118A], sequence (P01116 whole entry G12D/C118A, looked up): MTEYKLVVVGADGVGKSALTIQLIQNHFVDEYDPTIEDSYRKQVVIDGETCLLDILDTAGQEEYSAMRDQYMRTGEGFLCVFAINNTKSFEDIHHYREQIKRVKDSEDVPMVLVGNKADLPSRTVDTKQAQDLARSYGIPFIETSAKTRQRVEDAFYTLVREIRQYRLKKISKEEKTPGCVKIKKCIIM
T1 sequence (P01116 1-169 G12C/C118A): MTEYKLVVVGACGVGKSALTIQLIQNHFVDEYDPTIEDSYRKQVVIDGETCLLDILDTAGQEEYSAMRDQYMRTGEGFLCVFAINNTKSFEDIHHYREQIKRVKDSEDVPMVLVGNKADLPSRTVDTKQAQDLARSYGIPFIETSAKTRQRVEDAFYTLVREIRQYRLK

Turning to `CC(=O)C(=O)N1CCN(c2nc(=O)n(-c3c(C)ccnc3C(C)C)c3nc(-c4ccccc4F)c(Cl)cc23)[C@@H](C)C1` [US20240190862, Example 3], the IC50 is 31.3 µM in experiment [1] and over 250 µM at GTPase KRas [G12D,C118A].
Turning to `Cc1ccnc(C(C)C)c1-n1c(=O)nc(N2CCN(C(=O)C=O)C[C@@H]2C)c2cc(Cl)c(-c3ccccc3F)nc21` [US20240190862, Example 4], the values for the IC50 (in experiment [2]; in experiment [1]; at GTPase KRas [G12D,C118A]) were 0.61 µM, 0.039 µM and over 250 µM, respectively.
Consider `Cc1ccnc(C(C)C)c1-n1c(=O)nc(N2CCN(C(=O)COc3c(F)cccc3F)C[C@@H]2C)c2cc(Cl)c(-c3ccccc3F)nc21` [US20240190862, Example 8], for which the IC50 in experiment [1] is 24 µM; against GTPase KRas [G12D,C118A] it was over 250 µM.
In the case of `Cc1ccnc(C(C)C)c1-n1c(=O)nc(N2CCN(C(=O)C=[N+]=[N-])C[C@@H]2C)c2cc(Cl)c(-c3ccccc3F)nc21` [US20240190862, Example 13], the results for the IC50 (in experiment [2]; in experiment [1]; against GTPase KRas [G12D,C118A]) were 8.59 µM, 0.54 µM and over 250 µM, respectively.
